Drawing on patent US9944678B2, “Immunomodulators” (BRISTOL-MYERS SQUIBB COMPANY, priority 2014, dated 2018), this text covers IC50 and bioavailability for eight compounds.

The IC50 is the concentration that gives 50% inhibition. Higher therefore signals a need for much substance.

Series [1] deals with T1, PD-1-Ig binding to PD-L1-TVMV-His (PD-L1-His) (Homo sapiens, UniProt Q9NZQ7).
T1 construct: hPDL1(19-239)-TVMV-His; TVMV protease cleavage site (C); made in house; host or cells: HEK293T cells
The series is described as follows: PD-1/PD-L1 Homogenous Time-Resolved Fluorescence (HTRF) binding assay. To be noted: PD-1-Ig/PD-L1-His binding. An excerpt:
The ability of the macrocyclic peptides of the present disclosure to bind to PD-L1 was investigated using a PD-1/PD-L1 Homogenous Time-Resolved Fluorescence (HTRF) binding assay.
Homogenous Time-Resolved Fluorescence (HTRF) Assays of Binding of Soluble PD-1 to Soluble PD-L1. Soluble PD-1 and soluble PD-L1 refers to proteins with carboxyl-end truncations that remove the transmembrane-spanning regions and are fused to heterologous sequences, specifically the Fc portion of the human immunoglobuling G sequence (Ig) or the hexahistidine epitope tag (His). All binding studies were performed in an HTRF assay buffer consisting of dPBS supplemented with 0.1% (w/v) bovine serum albumin and 0.05% (v/v) Tween-20. For the PD-1-Ig/PD-L1-His binding assay, inhibitors were pre-incubated with PD-L1-His (10 nM final) for 15 m in 4 μl of assay buffer, followed by addition of PD-1-Ig (20 nM final) in 1 μl of assay buffer and further incubation for 15 m. PD-L1 fusion proteins from either human, cynomologous macaques, mouse, or other species were used. HTRF detection was achieved using europium crypate-labeled anti-Ig monoclonal antibody (1 nM final) and allophycocyanin (APC) labeled anti-His monoclonal antibody (20 nM final). Antibodies were diluted in HTRF detection buffer and 5 μl was dispensed on top of binding reaction. The reaction was allowed to equilibrate for 30 minutes and signal (665 nm/620 nm ratio) was obtained using an EnVision fluorometer. Additional binding assays were established between PD-1-Ig/PD-L2-His (20 and 5 nM, respectively), CD80-His/PD-L1-Ig (100 and 10 nM, respectively) and CD80-His/CTLA4-Ig (10 and 5 nM, respectively). Binding/competition studies between biotinylated Compound No. 71 and human PD-L1-His were performed as follows. Macrocyclic peptide inhibitors were pre-incubated with PD-L1-His (10 nM final) for 60 minutes in 4 μl of assay buffer followed by addition of biotinylated Compound No. 71 (0.5 nM final) in 1 μl of assay buffer. Binding was allowed to equilibrate for 30 minutes followed by addition of europium crypated labeled Streptavidin (2.5 pM final) and APC-labeled anti-His (20 nM final) in 5 μl of HTRF buffer. The reaction was allowed to equilibrate for 30 m and signal (665 nm/620 nm ratio) was obtained using an EnVision fluorometer.
Recombinant Proteins. Carboxyl-truncated human PD-1 (amino acids 25-167) with a C-terminal human Ig epitope tag [hPD-1 (25-167)-3S-IG] and human PD-L1 (amino acids 18-239) with a C-terminal His epitope tag [hPD-L1(19-239)-tobacco vein mottling virus protease cleavage site (TVMV)-His] were expressed in HEK293T cells and purified sequentially by recombinant Protein A affinity chromatography and size exclusion chromatography. Human PD-L2-His (Sino Biologicals), CD80-His (Sino Biologicals), CTLA4-Ig (RnD Systems) were all obtained through commercial sources.
Ranges are as follows: A=0.10-10 μM; B=0.01-0.099 μM; C=0.004-0.0099 μM.
For orientation: Time-resolved FRET reads energy transfer from a long-lived donor to a nearby acceptor.

For series [2] the following is noted: oral formulation ENTOCORT EC, extensive first-pass metabolism; cited from earlier work.

Starred links: 1 amine or outer side, 2 acyl side, 3 side chain; linkers in the order of their positions; H or OH if unused. Positions of bridges follow the written chain, without caps; N, C: chain ends. Non-standard residues stand in square brackets, D forms with d. Residues, ends and D or L forms follow the SMILES beside them. ξ: configuration not given here. X2 = CC[C@H]1C[C@@]1(N[*:1])C(=O)[*:2]; X4 = C[C@H]1C[C@@]1(N[*:1])C(=O)[*:2]; Bta = N[C@@H](Cc1csc2ccccc12)C(=O)O; X3 = C[C@H]1CC1(N[*:1])C(=O)[*:2]; Hyp = O=C(O)[C@@H]1C[C@@H](O)CN1; NMeNle = CCCC[C@H](NC)C(=O)O; NMeA = CN[C@@H](C)C(=O)O; ξC = NC(CS)C(=O)O

T1 sequence (Q9NZQ7 with tags, fused parts or gaps): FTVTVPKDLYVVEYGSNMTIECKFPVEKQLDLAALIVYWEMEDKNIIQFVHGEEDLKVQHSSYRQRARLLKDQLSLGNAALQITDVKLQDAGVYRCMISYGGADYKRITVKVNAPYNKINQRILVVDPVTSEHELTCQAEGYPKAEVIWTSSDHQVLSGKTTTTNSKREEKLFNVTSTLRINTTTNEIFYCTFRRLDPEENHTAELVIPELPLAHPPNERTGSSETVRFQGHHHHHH

With `CCCC[C@H]1C(=O)N(C)[C@@H](CCCC)C(=O)N[C@@H](CCCNC(=N)N)C(=O)NC(C(=O)NCC(N)=O)CSCC(=O)N[C@@H](Cc2ccc(O)cc2)C(=O)N(C)[C@@H](C)C(=O)N[C@@H](CC(N)=O)C(=O)N[C@]2(C[C@@H]2C)C(=O)N[C@@H](Cc2cnc[nH]2)C(=O)N[C@@H](CC(C)C)C(=O)N2C[C@H](O)C[C@H]2C(=O)N[C@@H](Cc2c[nH]c3ccccc23)C(=O)N[C@@H](CO)C(=O)N[C@@H](Cc2csc3ccccc23)C(=O)N1C` (some centres unmarked) [Example 10004] ({CH2CO}-Y[NMeA]N[X4]HL[Hyp]WS[Bta][NMeNle][NMeNle]R[ξC]G-NH2; thioether N-14), the IC50 in series [1] (values given as range classes) is 10 to 99 nM.

`CCCC[C@H]1C(=O)N(C)[C@@H](CCCC)C(=O)N[C@@H](CCCNC(=N)N)C(=O)NC(C(=O)NCC(N)=O)CSCC(=O)N[C@@H](Cc2ccc(O)cc2)C(=O)N(C)[C@@H](C)C(=O)N[C@@H](CC(N)=O)C(=O)N2CCC[C@H]2C(=O)N[C@@H](Cc2cnc[nH]2)C(=O)N[C@@H](CC(C)C)C(=O)NC2(C[C@@H]2C)C(=O)N[C@@H](Cc2c[nH]c3ccccc23)C(=O)N[C@@H](CO)C(=O)N[C@@H](Cc2csc3ccccc23)C(=O)N1C` (some centres unmarked) [Example 10005] ({CH2CO}-Y[NMeA]NPHL[X3]WS[Bta][NMeNle][NMeNle]R[ξC]G-NH2; thioether N-14) returned an IC50 in series [1] (numeric values) of 1000 nM. The compound `CCCC[C@H]1C(=O)N(C)[C@@H](CCCC)C(=O)N[C@@H](CCCNC(=N)N)C(=O)NC(C(=O)NCC(N)=O)CSCC(=O)N[C@@H](Cc2ccc(O)cc2)C(=O)N(C)[C@@H](C)C(=O)N[C@@H](CC(N)=O)C(=O)N2C[C@H](O)C[C@H]2C(=O)N[C@@H](Cc2cnc[nH]2)C(=O)N[C@@H](CC(C)C)C(=O)NC2(C[C@@H]2C)C(=O)N[C@@H](Cc2c[nH]c3ccccc23)C(=O)N[C@@H](CO)C(=O)N[C@@H](Cc2csc3ccccc23)C(=O)N1C` (some centres unmarked) [Example 10006] ({CH2CO}-Y[NMeA]N[Hyp]HL[X3]WS[Bta][NMeNle][NMeNle]R[ξC]G-NH2; thioether N-14) returned an IC50 in series [1] (values given as range classes) of 100 to 10000 nM.

For `CCCC[C@H]1C(=O)N(C)[C@@H](CCCC)C(=O)N[C@@H](CCCNC(=N)N)C(=O)NC(C(=O)NCC(N)=O)CSCC(=O)N[C@@H](Cc2ccc(O)cc2)C(=O)N(C)[C@@H](C)C(=O)N[C@@H](CC(N)=O)C(=O)N2C[C@H](O)C[C@H]2C(=O)N[C@@H](Cc2cnc[nH]2)C(=O)N[C@@H](CC(C)C)C(=O)NC2(C[C@@H]2C)C(=O)N[C@@H](Cc2c[nH]c3ccccc23)C(=O)N[C@@H](CO)C(=O)N[C@@H](Cc2c[nH]c3ccccc23)C(=O)N1C` (some centres unmarked) [Example 10007], the IC50 in series [1] (values given as range classes) fell in the range of 100 to 10000 nM. Still for that read-out and setting: to `CCCC[C@H]1C(=O)N(C)[C@@H](CCCC)C(=O)N[C@@H](CCCNC(=N)N)C(=O)NC(C(=O)NCC(N)=O)CSCC(=O)N[C@@H](Cc2ccc(O)cc2)C(=O)N(C)[C@@H](C)C(=O)N[C@@H](CC(N)=O)C(=O)N[C@]2(C[C@@H]2CC)C(=O)N[C@@H](Cc2cnc[nH]2)C(=O)N[C@@H](CC(C)C)C(=O)N2C[C@H](O)C[C@H]2C(=O)N[C@@H](Cc2c[nH]c3ccccc23)C(=O)N[C@@H](CO)C(=O)N[C@@H](Cc2csc3ccccc23)C(=O)N1C` (some centres unmarked) [Example 10008] ({CH2CO}-Y[NMeA]N[X2]HL[Hyp]WS[Bta][NMeNle][NMeNle]R[ξC]G-NH2; thioether N-14) belongs 10 to 99 nM; to `CCCC[C@H]1C(=O)N(C)[C@@H](CCCC)C(=O)N[C@@H](CCCNC(=N)N)C(=O)NC(C(=O)NCC(N)=O)CSCC(=O)N[C@@H](Cc2ccc(O)cc2)C(=O)N(C)[C@@H](C)C(=O)N[C@@H](CC(N)=O)C(=O)N[C@]2(C[C@@H]2CC)C(=O)N[C@@H](Cc2cnc[nH]2)C(=O)N[C@@H](CC(C)C)C(=O)N2C[C@H](O)C[C@H]2C(=O)N[C@@H](Cc2c[nH]c3ccccc23)C(=O)N[C@@H](CO)C(=O)N[C@@H](Cc2c[nH]c3ccccc23)C(=O)N1C` (some centres unmarked) [Example 10009] ({CH2CO}-Y[NMeA]N[X2]HL[Hyp]WSW[NMeNle][NMeNle]R[ξC]G-NH2; thioether N-14), 100 to 10000 nM; to `CCCC[C@H]1C(=O)N(C)[C@@H](CCCC)C(=O)N[C@@H](CCCNC(=N)N)C(=O)NC(C(=O)NCC(N)=O)CSCC(=O)N[C@@H](Cc2ccc(O)cc2)C(=O)N(C)[C@@H](C)C(=O)N[C@@H](CC(N)=O)C(=O)N[C@]2(C[C@@H]2CC)C(=O)N[C@@H](Cc2cnc[nH]2)C(=O)N[C@@H](CC(C)C)C(=O)N2CCC[C@H]2C(=O)N[C@@H](Cc2c[nH]c3ccccc23)C(=O)N[C@@H](CO)C(=O)N[C@@H](Cc2c[nH]c3ccccc23)C(=O)N1C` (some centres unmarked) [Example 10010] ({CH2CO}-Y[NMeA]N[X2]HLPWSW[NMeNle][NMeNle]R[ξC]G-NH2; thioether N-14), 100 to 10000 nM.

As for `CCCC1O[C@@H]2C[C@H]3[C@@H]4CCC5=CC(=O)C=C[C@]5(C)[C@H]4[C@@H](O)C[C@]3(C)[C@]2(C(=O)CO)O1` (some centres unmarked) [budesonide], in series [2], the bioavailability entry was “about 10%”.
